Results as given in ChEMBL document CHEMBL1152992, “RmtC 16S rRNA methyltransferase in Australia” (2008).
≈ marks a conversion by molar mass, not a printed value.

Tested on: Proteus mirabilis
Assay: Antimicrobial activity against Proteus mirabilis JIE273 expressing 16S rRNA methyltransferase RmtC
Assay type: functional

Row | SMILES | MIC
1 | CC1(C)S[C@@H]2[C@H](NC(=O)[C@H](N)c3ccccc3)C(=O)N2[C@H]1C(=O)O [AMPICILLIN] | > 16 µg/mL
2 | C[C@H]1[C@H](NC(=O)/C(=N\OC(C)(C)C(=O)O)c2csc(N)n2)C(=O)N1S(=O)(=O)O [AZTREONAM] | > 16 µg/mL
3 | CO/N=C(\C(=O)N[C@@H]1C(=O)N2C(C(=O)O)=C(COC(C)=O)CS[C@H]12)c1csc(N)n1 [CEFOTAXIME] | > 32 µg/mL
4 | CO[C@@]1(NC(=O)Cc2cccs2)C(=O)N2C(C(=O)O)=C(COC(N)=O)CS[C@@H]21 [CEFOXITIN] | ≤ 4 µg/mL
5 | CC(C)(O/N=C(\C(=O)N[C@@H]1C(=O)N2C(C(=O)[O-])=C(C[n+]3ccccc3)CS[C@H]12)c1csc(N)n1)C(=O)O [CEFTAZIDIME] | > 16 µg/mL
6 | CO/N=C(\C(=O)N[C@@H]1C(=O)N2C(C(=O)O)=C(CSc3nc(=O)c(O)nn3C)CS[C@H]12)c1csc(N)n1 [CEFTRIAXONE] | > 32 µg/mL
7 | CO/N=C(\C(=O)N[C@@H]1C(=O)N2C(C(=O)O)=C(COC(N)=O)CS[C@H]12)c1ccco1 [CEFUROXIME] | > 16 µg/mL
8 | CC(=O)OCC1=C(C(=O)O)N2C(=O)[C@@H](NC(=O)Cc3cccs3)[C@H]2SC1 [CEPHALOTHIN] | > 16 µg/mL
9 | O=C(O)c1cn(C2CC2)c2cc(N3CCNCC3)c(F)cc2c1=O [CIPROFLOXACIN] | > 2 µg/mL
10 | C[C@@H](O)[C@H]1C(=O)N2C(C(=O)O)=C(SCCNC=N)C[C@H]12 [IMIPENEM ANHYDROUS] | ≤ 2 µg/mL
11 | C[C@H]1COc2c(N3CCN(C)CC3)c(F)cc3c(=O)c(C(=O)O)cn1c23.C[C@H]1COc2c(N3CCN(C)CC3)c(F)cc3c(=O)c(C(=O)O)cn1c23.O [LEVOFLOXACIN] | > 4 µg/mL
12 | CCn1cc(C(=O)O)c(=O)c2ccc(C)nc21 [NALIDIXIC ACID] | > 32 µg/mL
13 | CC1(C)S[C@@H]2[C@H](NC(=O)[C@H](C(=O)O)c3ccsc3)C(=O)N2[C@H]1C(=O)O [TICARCILLIN] | 32 µg/mL (≈ 83.2 µM)
